In ChEMBL document CHEMBL1201862, “PubChem BioAssay data set” (2004):
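96-well plates; 48 h exposure; 5 concentrations. Endpoints by linear interpolation between flanking doses. Not reached: highest tested concentration assigned. GI50 is the concentration that inhibits growth by half.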 The source made the active and inactive calls. No stated cut-off is given here; in the data, active = GI50 up to about 1.1 µM and inactive = higher.

Experiments:
Assay in all cases: DTP human tumour cell line panel, 48 h
OVCAR-5 = system: OVCAR-5
HT-29 = system: HT-29
SNB-19 = system: SNB-19
SR = system: SR
CCRF-CEM = system: CCRF-CEM
A549 = system: A549
OVCAR-8 = system: OVCAR-8
EKVX = system: EKVX
NCI-H23 = system: NCI-H23
LOX IMVI = system: LOX IMVI
PC-3 = system: PC-3
HOP-62 = system: HOP-62
HCT-116 = system: HCT-116
SW-620 = system: SW-620
MDA-N = system: MDA-N
SN12C = system: SN12C
DU-145 = system: DU-145
M14 = system: M14
SNB-75 = system: SNB-75

| Compound | GI50 (OVCAR-5) | GI50 (HT-29) | GI50 (SNB-19) | GI50 (SR) | GI50 (CCRF-CEM) | GI50 (A549) | GI50 (OVCAR-8) | GI50 (EKVX) | GI50 (NCI-H23) | GI50 (LOX IMVI) | GI50 (PC-3) | GI50 (HOP-62) | GI50 (HCT-116) | GI50 (SW-620) | GI50 (MDA-N) | GI50 (SN12C) | GI50 (DU-145) | GI50 (M14) | GI50 (SNB-75) |
| --- | --- | --- | --- | --- | --- | --- | --- | --- | --- | --- | --- | --- | --- | --- | --- | --- | --- | --- | --- |
| Cc1ccc2c3c1O[C@H]1c4nc5ccccc5cc4C[C@@]4(O)[C@@H](C2)N(CC2CC2)CC[C@]314 | 12.7 µM (inactive) | 3.31 µM (inactive) | 12.8 µM (inactive) | 3.86 µM (inactive) | 1.39 µM (inactive) | 6.4 µM (inactive) | 10.7 µM (inactive) | 15.1 µM (inactive) | 20.6 µM (inactive) | 4.47 µM (inactive) | 3.95 µM (inactive) | 12.1 µM (inactive) | 4.54 µM (inactive) | 4.29 µM (inactive) | 11.8 µM (inactive) | 28.6 µM (inactive) | 14.1 µM (inactive) | 12.5 µM (inactive) | – |
| CC(C)OP(=O)(OC(C)C)c1c(N)n[nH]c1Nc1ccccc1 | > 100 µM (inactive) | > 100 µM (inactive) | > 100 µM (inactive) | > 100 µM (inactive) | > 100 µM (inactive) | > 100 µM (inactive) | > 100 µM (inactive) | > 100 µM (inactive) | > 100 µM (inactive) | > 100 µM (inactive) | > 100 µM (inactive) | > 100 µM (inactive) | – | > 100 µM (inactive) | > 100 µM (inactive) | – | > 100 µM (inactive) | > 100 µM (inactive) | > 100 µM (inactive) |
| C[N+]1(CC[N+]2(C)CCCC2c2cccnc2)CCCC1c1cccnc1 (centres undefined) | > 100 µM (inactive) | 50.6 µM (inactive) | > 100 µM (inactive) | > 100 µM (inactive) | – | > 100 µM (inactive) | > 100 µM (inactive) | 18.7 µM (inactive) | > 100 µM (inactive) | > 100 µM (inactive) | > 100 µM (inactive) | > 100 µM (inactive) | 96.6 µM (inactive) | > 100 µM (inactive) | 32.5 µM (inactive) | > 100 µM (inactive) | > 100 µM (inactive) | > 100 µM (inactive) | > 100 µM (inactive) |
| CSc1nc2c3ccccc3ccn2c1C(=O)N/N=C/c1ccccc1 | > 75.5 µM (inactive) | > 100 µM (inactive) | – | 41.9 µM (inactive) | > 100 µM (inactive) | 56.9 µM (inactive) | 18.5 µM (inactive) | > 100 µM (inactive) | 30.2 µM (inactive) | > 100 µM (inactive) | > 100 µM (inactive) | 13 µM (inactive) | 15.5 µM (inactive) | 97.9 µM (inactive) | 97.3 µM (inactive) | 28.1 µM (inactive) | > 74.6 µM (inactive) | > 100 µM (inactive) | > 42.7 µM (inactive) |
| COc1cc(/C=C2/C[C@H]3[C@@H]4CC=C5C[C@@H](O)CC[C@]5(C)[C@H]4CC[C@]3(C)NC2=O)cc(OC)c1OC | 29.6 µM (inactive) | 24 µM (inactive) | 20.1 µM (inactive) | 39.8 µM (inactive) | 47.8 µM (inactive) | 15 µM (inactive) | 18.9 µM (inactive) | 15.1 µM (inactive) | 22.1 µM (inactive) | 20 µM (inactive) | 18.7 µM (inactive) | 23.1 µM (inactive) | 22.1 µM (inactive) | > 73.8 µM (inactive) | 23 µM (inactive) | 7.36 µM (inactive) | 2.28 µM (inactive) | 30.5 µM (inactive) | – |
| C[C@]12CCC(O)CC1=CC[C@@H]1[C@@H]2CC[C@]2(C)C(O)[C@H](n3ccnc3)C[C@@H]12 (some centres undefined) | > 100 µM (inactive) | 8.17 µM (inactive) | 90.4 µM (inactive) | 13.1 µM (inactive) | 17.9 µM (inactive) | 81.7 µM (inactive) | > 100 µM (inactive) | > 100 µM (inactive) | 19.5 µM (inactive) | 39.2 µM (inactive) | 41.5 µM (inactive) | – | 59.4 µM (inactive) | > 100 µM (inactive) | 79.3 µM (inactive) | > 100 µM (inactive) | > 100 µM (inactive) | > 100 µM (inactive) | > 100 µM (inactive) |
| O=Cc1c2c(cc3c1CC1(C3)Cc3cc4c(c(C=O)c3C1)CCCC4)CCCC2 | > 31.6 µM (inactive) | 18 µM (inactive) | 98.9 µM (inactive) | 10.1 µM (inactive) | – | 21.3 µM (inactive) | 23.5 µM (inactive) | 23.9 µM (inactive) | 27.5 µM (inactive) | 23.6 µM (inactive) | 19.9 µM (inactive) | > 31.6 µM (inactive) | 20.4 µM (inactive) | 89.3 µM (inactive) | > 31.6 µM (inactive) | > 31.6 µM (inactive) | 85.3 µM (inactive) | > 31.6 µM (inactive) | > 100 µM (inactive) |
| C(=N\c1cc2cc(Sc3ccccc3)ccc2[nH]1)/c1ccccc1 | – | > 12.5 µM (inactive) | > 12.5 µM (inactive) | 1.32 µM (inactive) | > 12.5 µM (inactive) | 0.0818 µM (active) | > 12.5 µM (inactive) | > 12.5 µM (inactive) | > 12.5 µM (inactive) | 5.85 µM (inactive) | > 12.5 µM (inactive) | 2.08 µM (inactive) | > 12.5 µM (inactive) | > 12.5 µM (inactive) | 4.91 µM (inactive) | > 12.5 µM (inactive) | > 12.5 µM (inactive) | > 12.5 µM (inactive) | > 12.5 µM (inactive) |
| CC1OC(OC2C(OC3CCC4(C)C(CCC5(C)C4CC=C4C6CC(C)(C)CCC6(C(=O)O)CCC45C)C3(C)CO)OCC(O)C2O)C(O)C(O)C1O (centres undefined) | 19.8 µM (inactive) | 15.5 µM (inactive) | 15.8 µM (inactive) | 3.33 µM (inactive) | 4.68 µM (inactive) | 19.1 µM (inactive) | 20.3 µM (inactive) | 20.4 µM (inactive) | 17.7 µM (inactive) | 11.1 µM (inactive) | 13 µM (inactive) | 29.6 µM (inactive) | 7.4 µM (inactive) | 11.7 µM (inactive) | 21.1 µM (inactive) | 21.1 µM (inactive) | 18.9 µM (inactive) | – | 14.2 µM (inactive) |
| COc1ccc(/C=C/C(=O)c2ccc(Br)cc2)cc1 | 18.4 µM (inactive) | > 100 µM (inactive) | > 100 µM (inactive) | 84.1 µM (inactive) | > 100 µM (inactive) | > 100 µM (inactive) | > 100 µM (inactive) | > 100 µM (inactive) | 30.6 µM (inactive) | – | > 100 µM (inactive) | > 100 µM (inactive) | 80.4 µM (inactive) | > 100 µM (inactive) | > 100 µM (inactive) | > 100 µM (inactive) | > 100 µM (inactive) | > 100 µM (inactive) | 93.5 µM (inactive) |
| CCOC(=O)C(NC(=O)CC)(Nc1ccccc1F)C(F)(F)F (centres undefined) | 58.1 µM (inactive) | > 100 µM (inactive) | > 100 µM (inactive) | > 100 µM (inactive) | – | > 100 µM (inactive) | > 100 µM (inactive) | > 100 µM (inactive) | > 100 µM (inactive) | > 100 µM (inactive) | > 100 µM (inactive) | – | > 100 µM (inactive) | > 100 µM (inactive) | > 100 µM (inactive) | > 100 µM (inactive) | > 100 µM (inactive) | > 100 µM (inactive) | > 100 µM (inactive) |
| Cc1ccc2c(sc(-c3ccc4c(c3)sc(-c3ccc(N(C)C)cc3)[n+]4C)[n+]2C)c1S(=O)(=O)O.Cc1ccc2c(sc(-c3ccc4c(c3)sc(-c3ccc5c(c3)sc(-c3ccc(N(C)C)cc3)[n+]5C)[n+]4C)[n+]2C)c1S(=O)(=O)O | > 100 µM (inactive) | > 100 µM (inactive) | > 100 µM (inactive) | 1 µM (active) | 10 µM (inactive) | > 100 µM (inactive) | > 100 µM (inactive) | 76 µM (inactive) | > 100 µM (inactive) | > 100 µM (inactive) | > 100 µM (inactive) | – | > 100 µM (inactive) | > 100 µM (inactive) | > 100 µM (inactive) | > 100 µM (inactive) | > 100 µM (inactive) | > 100 µM (inactive) | > 100 µM (inactive) |
| CC(NC(=O)OC(C)(C)C)C(=O)C(N)=O (centres undefined) | > 100 µM (inactive) | – | > 100 µM (inactive) | 38.6 µM (inactive) | > 100 µM (inactive) | > 100 µM (inactive) | > 100 µM (inactive) | > 100 µM (inactive) | > 100 µM (inactive) | > 100 µM (inactive) | > 100 µM (inactive) | > 100 µM (inactive) | > 100 µM (inactive) | > 100 µM (inactive) | > 100 µM (inactive) | > 100 µM (inactive) | > 100 µM (inactive) | > 100 µM (inactive) | > 100 µM (inactive) |
| COC(=O)C(CCCCN)NC(=O)C(CCCCN)NC(C)=O.Cc1ccc(C(=O)Nc2ccc(S(=O)(=O)O)c3cc(S(=O)(=O)O)cc(S(=O)(=O)O)c23)cc1NC(=O)c1cccc(NC(=O)Nc2cccc(C(=O)Nc3cc(C(=O)Nc4ccc(S(=O)(=O)O)c5cc(S(=O)(=O)O)cc(S(=O)(=O)O)c45)ccc3C)c2)c1 | – | > 50 µM (inactive) | > 50 µM (inactive) | > 50 µM (inactive) | > 50 µM (inactive) | > 50 µM (inactive) | > 50 µM (inactive) | > 50 µM (inactive) | > 50 µM (inactive) | > 50 µM (inactive) | > 50 µM (inactive) | – | > 50 µM (inactive) | > 50 µM (inactive) | > 50 µM (inactive) | > 50 µM (inactive) | > 50 µM (inactive) | 10.6 µM (inactive) | 7.59 µM (inactive) |
